Experimental data as given in ChEMBL document CHEMBL3390848, “Affinity selection and sequence-activity relationships of HIV-1 membrane fusion inhibitors directed at the drug-resistant variants” (Medchemcomm, 2010).
Residues, ends and D or L forms follow the SMILES beside them.

Columns and labels:
[1] = test system: Human immunodeficiency virus 1; assay: Binding affinity to HIV1 His-tagged N-terminal heptad repeat of envelope glycoprotein gp41 assessed as recovery of N36-drug complex at 0.6 uM after 2 hrs by LC-MS analysis
[2] = test system: Envelope glycoprotein gp160 (Human immunodeficiency virus 1), Q72502 [V38A]; assay: Binding affinity to HIV1 His-tagged N-terminal heptad repeat of envelope glycoprotein gp41 assessed as recovery of N36 V38A mutant-drug complex after 2 hrs by LC-MS analysis; design: concentration or dose not given beside the values
[3] = test system: Human immunodeficiency virus 1; assay: Antiviral activity against HIV1 NL4-3 harboring gp41 D36G mutant infected in human HeLa cells expressing CD4-LTR-beta-gal assessed as inhibition of viral replication after 48 hrs by MAGI assay; assay type: functional, organism-based
[4] = test system: Human immunodeficiency virus 1; assay: Thermal stability of HIV1 envelope glycoprotein gp41 His-tagged N-terminal heptad repeat N36-drug complex assessed as thermal unfolding transition state by measuring molar ellipticity at 4 to 90 degC by circular dichroic spectra analysis
[5] = test system: Human immunodeficiency virus 1; assay: Binding affinity to HIV1 His-tagged N-terminal heptad repeat of envelope glycoprotein gp41 assessed as recovery of N36-drug complex at 1 uM after 2 hrs by LC-MS analysis
[6] = test system: Human immunodeficiency virus 1; assay: Binding affinity to HIV1 His-tagged N-terminal heptad repeat of envelope glycoprotein gp41 assessed as recovery of N36-drug complex at 10 uM after 2 hrs by LC-MS analysis
[7] = test system: Envelope glycoprotein gp160 (Human immunodeficiency virus 1), Q72502 [V38A]; assay: Thermal stability of HIV1 envelope glycoprotein gp41 His-tagged N-terminal heptad repeat N36 V38A mutant-drug complex assessed as thermal unfolding transition state by measuring molar ellipticity at 4 to 90 degC by circular dichroic spectra analysis
[8] = test system: Human immunodeficiency virus 1; assay: Binding affinity to HIV1 His-tagged N-terminal heptad repeat of envelope glycoprotein gp41 assessed as recovery of N36 N43D mutant-drug complex after 2 hrs by LC-MS analysis; design: concentration or dose not given beside the values
[9] = test system: Human immunodeficiency virus 1; assay: Binding affinity to HIV1 His-tagged N-terminal heptad repeat of envelope glycoprotein gp41 assessed as recovery of N36-drug complex at 6 uM after 2 hrs by LC-MS analysis
[10] = test system: Human immunodeficiency virus 1; assay: Thermal stability of HIV1 envelope glycoprotein gp41 His-tagged N-terminal heptad repeat N36 N43D mutant-drug complex assessed as thermal unfolding transition state by measuring molar ellipticity at 4 to 90 degC by circular dichroic spectra analysis

SMILES | Activity [1] [%] | Activity [2] [%] | EC50 [3] [nM] | Tm [4] [°C] | Activity [5] [%] | Activity [6] [%] | Tm [7] [°C] | Activity [8] [%] | Activity [9] [%] | Tm [10] [°C]
CC[C@H](C)[C@H](NC(=O)[C@H](CCCCN)NC(=O)[C@H](CCCCN)NC(=O)[C@H](CC(=O)O)NC(=O)[C@H](Cc1c[nH]c2ccccc12)NC(=O)[C@H](CCC(=O)O)NC(=O)[C@H](CCC(=O)O)NC(=O)[C@H](Cc1c[nH]c2ccccc12)NC(C)=O)C(=O)N[C@@H](CCC(=O)O)C(=O)N[C@@H](CCC(=O)O)C(=O)N[C@@H](Cc1ccc(O)cc1)C(=O)N[C@H](C(=O)N[C@@H](CCCCN)C(=O)N[C@@H](CCCCN)C(=O)N[C@H](C(=O)N[C@@H](CCC(=O)O)C(=O)N[C@@H](CCC(=O)O)C(=O)N[C@@H](CC(C)C)C(=O)N[C@H](C(=O)N[C@@H](CCCCN)C(=O)N[C@@H](CCCCN)C(=O)N1CCC[C@H]1C(=O)N[C@@H](CCC(=O)O)C(=O)N[C@@H](CCC(=O)O)C(=O)N[C@@H](CCC(N)=O)C(=O)N[C@@H](CCC(N)=O)C(=O)N[C@@H](CCCCN)C(=O)N[C@@H](CCCCN)C(=O)N[C@@H](CC(N)=O)C(=O)N[C@@H](CCC(=O)O)C(=O)N[C@@H](CCC(=O)O)C(=O)N[C@@H](CCC(=O)O)C(=O)N[C@@H](CC(C)C)C(=O)N[C@@H](CCCCN)C(=O)N[C@@H](CCCCN)C(N)=O)[C@@H](C)CC)[C@@H](C)CC)[C@@H](C)O (Ac-WEEWDKKIEEYTKKIEELIKKPEEQQKKNEEELKK-NH2) | 4.5 | 0.4 | 35 | 56.1 | 0.1 | 0.4 | 56.3 | 0.3 | 0.2 | 55.6
CC[C@H](C)[C@H](NC(=O)[C@H](CCCCN)NC(=O)[C@H](CCCCN)NC(=O)[C@H](CC(=O)O)NC(=O)[C@H](Cc1c[nH]c2ccccc12)NC(=O)[C@H](CCC(=O)O)NC(=O)[C@H](CCC(=O)O)NC(=O)[C@H](Cc1c[nH]c2ccccc12)NC(C)=O)C(=O)N[C@@H](CCC(=O)O)C(=O)N[C@@H](CCC(=O)O)C(=O)N[C@@H](Cc1ccc(O)cc1)C(=O)N[C@H](C(=O)N[C@@H](CCCCN)C(=O)N[C@@H](CCCCN)C(=O)N[C@H](C(=O)N[C@@H](CCC(=O)O)C(=O)N[C@@H](CCC(=O)O)C(=O)N[C@@H](CC(C)C)C(=O)N[C@H](C(=O)N[C@@H](CCCCN)C(=O)N[C@@H](CCCCN)C(=O)N[C@H](C(=O)N[C@@H](CCC(=O)O)C(=O)N[C@@H](CCC(=O)O)C(=O)N[C@@H](CCC(N)=O)C(=O)N[C@@H](CCC(N)=O)C(=O)N[C@@H](CCCCN)C(=O)N[C@@H](CCCCN)C(=O)N[C@@H](CC(N)=O)C(=O)N[C@@H](CCC(=O)O)C(=O)N[C@@H](CCC(=O)O)C(=O)N[C@@H](CCC(=O)O)C(=O)N[C@@H](CC(C)C)C(=O)N[C@@H](CCCCN)C(=O)N[C@@H](CCCCN)C(N)=O)[C@@H](C)O)[C@@H](C)CC)[C@@H](C)CC)[C@@H](C)O (Ac-WEEWDKKIEEYTKKIEELIKKTEEQQKKNEEELKK-NH2) | 5.7 | 10.8 | 0.8 | 79.7 | 11.7 | 9 | 70.4 | 9.4 | 12.8 | 67.5
